One assay deals with 4T1 tumors. Kind of assay: 4T1 tumor growth in vivo. To be noted: 100 mg/kg i.p. three times weekly. The arrangement: species or system BALB/c mice. As to the method: One of the most striking features of ICA and ICT is their anti-tumorigenic ability in vivo. Seven days post-infection 1 cm diameter 4T1 tumors from 5 mice were established in BALB/c mice. Mice were treated with 100 mg/kg of ICA, ICT or vehicle (i.p.) three times weekly and tumor size (mean and SD) was monitored every 2 to 3 days. The percentages of double-positive Gr-1+CD11b′ MDSCs were determined for spleens of five mice per group. Cell phenotype was evaluated by flow cytometry. […] ICA or ICT on the differentiation of MDSC.

Assay [1] relates to U937. In words: IC50 / toxicity in cells. The assay is classed as cell-based. To be noted: Homo sapiens, U-937.
The subject of a further assay is PBMC. Kind of assay: IC50 / toxicity in cells. The assay is classed as cell-based.
Another assay concerns MDS BMNCs. In words: Colony formation (CFU-GM, BFU-E) in MethoCult H4434. It is filed as cell-based. The note with it: 20 uM for 48 h, 14 days culture. On the procedure: Bone marrow mononuclear cells (BMCs) from MDS patients were treated with 20 uM ICT for 48 h, and then seeded into MethoCult H4434 complete medium, the mixture is placed in 35-mm culture dishes (1×10^5 cells/each dish) and incubated at 37° C. in 5% CO2 for 14 days. After incubation, colonies of CFU-GM and BFU-E were identified and counted using an inverted light microscope, as shown in FIGS. 21A and 21B respectively. Each point represents the mean results of […], and each experimental point represents duplicate plates. Results are expressed as mean value±SD.

Another assay deals with SIGLEC3. Kind of assay: SIGLEC3/CD33 expression on PBMC (Q-PCR, flow cytometry). It is filed as cell-based, human. To be noted: healthy PBMC, 48 hours; for SIGLEC3 mRNA and protein expression: 1 μM (Q-PCR). As to the method:
FIG. 4 depicts the down-regulation of the RNA expression of SIGLEC3 on PBMCs due to ICA and ICT. Healthy PBMC were cultured for 48 hours with 1 μM of DMSO, ICA or ICT and the expression of SIGLEC3 was measured by Q-PCR and analyzed by the AACt method. Error bars indicate SEM.
FIG. 5 depicts the effect of ICT on the expression of SIGLEC3 and SIGLEC5 on PBMC. PBMC from healthy donors were treated for 48 hours with DMSO or ICT and stained extra-cellularly with SIGLEC3-PE and SIGLEC5/14-APC antibodies (BD biosciences).
SIGLEC3 is highly expressed in MDSCs isolated from patients with AML (FIG. 6a). […] Specifically, healthy PBMC were cultured for 48 hours with 1 μM of DMSO, ICA or ICT and the expression of SIGLEC3 was measured by Q-PCR and analyzed by the MCt method. Also, PBMC from healthy donors were treated for 48 hours with DMSO or ICT and stained extra-cellularly with SIGLEC3-PE and SIGLEC5/14-APC antibodies (BD biosciences). S100A9 can ligate with SIGLEC3, denoting the presence of an uncharacterized pathway that could be linked to the identification of specific strategies targeting the regulation of MDSC activation.
Healthy PBMC were cultured for 48 hours with […] of the PDE5 inhibitor ICT and the expression of SIGLEC3 measured by the DDCt method. The experimental control is PBMC treated with DMSO and the internal control was GAPDH. Error bars indicate the SEM of three separate donors/experiments.
(A flow cytometer gives signals particle by particle.)

Assay [2] deals with CD16 (FcγRIII) in CD3− CD56+ NK cells. In words: Surface expression of CD16 in NK cells (flow cytometry). The assay is classed as cell-based. To be noted: PBMC from healthy donors, 48 hours treatment. As to the method: FIG. 16 depicts the effect of ICA and ICT treatment on the surface expression of CD16 (FcγRIII) in NK cells. PBMC from healthy donors were treated with ICA/ICT or DMSO for 48 hours before analysis of CD16 expression by flow cytometry. NK cells were defined as CD3^− population and analyzed for the presence of CD16±CD56^+ cells as indicated.
An alternative strategy can be performed by measuring NK-mediated antibody dependent cytotoxicity (ADCC) on SIGLEC3^+ MDSC. […] This is particularly of interest, because these Fc receptors can be critical for the development of ADCC, a cytotoxic function of NK cells. This function can involve the activation of NK cells through the ligation of CD16 with an antibody already bound to a target cell which can trigger the target cell to undergo apoptosis through the release of cytotoxic granules containing perform and granzymes. Humanized anti-SIGLEC3/CD33 antibodies can be used to apply a strategy to deplete MDSC by NK-mediated ADCC.

The test system of assay [3] is 4T1. In words: IC50 of ICT in cell lines. The assay is classed as cell-based. The note with it: Mus musculus.
Assay [4] relates to K562. In words: IC50 of ICT in cell lines. The assay is classed as cell-based. To be noted: Homo sapiens.
The subject of a further assay is Raji. In words: IC50 of ICT in cell lines. The assay is classed as cell-based. To be noted: Homo sapiens.
Assay [5] deals with MCF-7. In words: IC50 of ICT in cell lines. The assay is classed as cell-based. The note with it: Homo sapiens, MCF7.
The test system of assay [6] is 4T1. Kind of assay: Apoptosis rates of ICT in cell lines. The assay is classed as cell-based.
Assay [7] relates to K562. In words: Apoptosis rates of ICT in cell lines. The assay is classed as cell-based.
The test system of assay [8] is MCF-7. Kind of assay: Apoptosis rates of ICT in cell lines. The assay is classed as cell-based.
Assay [9] concerns U937. In words: Apoptosis rates of ICT in cell lines. It is filed as cell-based.
For the next assay, the system named is IL-10 and TGFb. In words: Expression of IL-10 and TGFb on LPS-treated PBMC (Q-PCR). The assay is classed as cell-based. To be noted: 48 hours, 20 μM. On the procedure: The relative expression of IL-10 and TGFb by Q-PCR are shown in FIGS. 19A and 19B, respectively. Healthy PBMC were cultured for 48 hours with 20 μM ICT and the gene expression measured by the DDCt method. The experimental control is PBMC treated with DMSO for 48 hours and the internal control was GAPDH. Error bars indicate the SEM of three separate donors/experiments.

The test system of another assay is CD33 and iNOS. In words: Expression of CD33 and iNOS on MDS-BM (flow cytometry, Q-PCR). It is filed as cell-based. The arrangement: concentration or dose not given beside the values. The note with it: 48 hours, 20 ICT.

The structures appear in SMILES notation. Read-outs that look alike come from different tables or passages of the source.

As for `COc1ccc(-c2oc3c(CC=C(C)C)c(O[C@@H]4O[C@H](CO)[C@@H](O)[C@H](O)[C@H]4O)cc(O)c3c(=O)c2O[C@@H]2O[C@@H](C)[C@H](O)[C@@H](O)[C@H]2O)cc1` [ICA, Icariin], the “tumor growth in vivo” value in the assay with 4T1 tumors was “inhibit tumor growth in vivo”. Moreover, the IC50 in the assay with U937 [1] and in the assay on PBMC was greater than 100 µM each time. Further, the “hematopoiesis of MDS BMNCs (CFU-GM, BFU-E colonies)” value in the assay with MDS BMNCs was “increase the hematopoiesis of MDS BMNCs”. For the same molecule, in the assay with SIGLEC3, the “SIGLEC3 mRNA and protein expression” value is “down-regulating SIGLEC3 at both the mRNA and protein expression levels”. Further, the “expression level of Fc receptor (CD16, FcγRIII) in NK cells” value in [2] is listed as “increase the expression level of Fc receptor”.

For `COc1ccc(-c2oc3c(CCC(C)(C)O)c(O)cc(O)c3c(=O)c2O)cc1` [ICT, 3,5,7-trihydroxy-4′-methoxy-8-(3-hydroxy-3-methylbutyl)-flavone], in the assay with 4T1 tumors, the “tumor growth in vivo” value is “inhibit tumor growth in vivo”. Besides, the IC50 (as a rule, the point on the concentration scale where inhibition reaches its midpoint) in the assay on 4T1 [3] is 6.7 µM; in the assay on K562 [4] it was 50.5 µM; in the assay on Raji it was 25.6 µM; in the assay with MCF-7 [5] it was 23.2 µM; with U937 [1] (U937, read-out: IC50) it was greater than 100 µM; in the assay with PBMC (read-out: IC50), greater than 100 µM. Besides, the Apoptosis rates in the assay on 4T1 [6] (4T1, 5 μM) is on record as 4.0%; with 4T1 [6] (4T1, 10 μM) it was 6.3%; in the assay with 4T1 [6] (4T1, 20 μM), 7.1%; in the assay on K562 [7] (K562, 5 μM), 5.5%; in the assay with K562 [7] (K562, 10 μM), 6.7%; in the assay on K562 [7] (K562, 20 μM), 7.8%. Besides, the Apoptosis rates in the assay with MCF-7 [8] (MCF-7, 5 μM) came to 3.9%; in the assay with MCF-7 [8] (MCF-7, 10 μM) it was 4.1%; in the assay with MCF-7 [8] (MCF-7, 20 μM), 6.1%; in the assay with U937 [9] (U937, 5 μM) it was 3.1%; in the assay on U937 [9] (U937, 10 μM) it was 2.6%; in the assay on U937 [9] (U937, 20 μM), 2.7%. Further, the “hematopoiesis of MDS BMNCs (CFU-GM, BFU-E colonies)” value in the assay on MDS BMNCs is “increase the hematopoiesis of MDS BMNCs”. Also, the “SIGLEC3 mRNA and protein expression” value in the assay on SIGLEC3 is “down-regulating SIGLEC3 at both the mRNA and protein expression levels”. The “expression of CD33 on PBMC” value in the assay on SIGLEC3 (20 μM) is reported as “down-regulate the expression of CD33 on PBMC”. Besides, the “expression of IL-10 and TGFb on LPS-treated PBMC” value in the assay on IL-10 and TGFb is “down-regulate the expression of the suppressive cytokine IL-10 and TGFb on LPS-treated PBMC”. Besides, the “expression of CD33 and iNOS on MDS-BM” value in the assay with CD33 and iNOS is “down-regulate the expression of CD33 and iNOS on MDS-BM”. The “expression level of Fc receptor (CD16, FcγRIII) in NK cells” value in assay [2] is reported as “increase the expression level of Fc receptor”.

These data come from US20200354331A1, “ICARIIN DERIVATIVES” (H. LEE MOFFITT CANCER CENTER AND RESEARCH INSTITUTE, INC., priority 2014, published 2020).
